ChEMBL document CHEMBL5661980, “Discovery of OSI-906: a selective and orally efficacious dual inhibitor of the IGF-1 receptor and insulin receptor” (Future Med Chem, 2009)
pIC50: −log10 of the molar value.

Assays:
[1] = Cmax in CD-1 mouse measured at 5 mg/kg, po for 1 to 24 hrs by HPLC-MS/MS analysis; assay type: ADME, organism-based; conditions: in vivo, time 1-24 hrs
[2] = AUC last in CD-1 mouse measured at 250 mg/kg, po for 1 to 24 hrs by HPLC-MS/MS analysis; assay type: ADME, organism-based; conditions: in vivo, time 1-24 hrs
[3] = Clearance in Beagle dog measured at 2.5 mg/kg, iv for 1 to 24 hrs by HPLC-MS/MS analysis; assay type: ADME, organism-based, Canis lupus familiaris; conditions: in vivo, time 1-24 hrs
[4] = Oral bioavailability in CD-1 mouse measured at 250 mg/kg for 1 to 24 hrs by HPLC-MS/MS analysis; assay type: ADME, organism-based; conditions: in vivo, time 1-24 hrs
NIH3T3 = experiment: Antitumor activity against mouse 3T3 cells allografted in athymic nu/nu CD-1 mouse assessed as tumor growth inhibition at 75 mg/kg, po for 12 days relative to control; assay type: functional; conditions: NIH3T3, 288 h, time 12 day, read-out: TGI
[5] = molecular target: Platelet-derived growth factor receptor (Homo sapiens, UniProt P09619+P16234); experiment: Inhibition of PDGFR-alpha/beta (unknown origin) in presence of ATP Km treated at 2 hrs followed by […] ligand addition for 15 mins by ELISA analysis
[6] = Volume of distribution at steady state in CD-1 mouse measured at 5 mg/kg, iv for 1 to 24 hrs by HPLC-MS/MS analysis; assay type: ADME, organism-based; conditions: in vivo, time 1-24 hrs, read-out: Vdss
[7] = AUC last in Sprague-Dawley rat measured at 100 mg/kg, po for 1 to 24 hrs by HPLC-MS/MS analysis; assay type: ADME, organism-based; conditions: in vivo, time 1-24 hrs
[8] = Elimination half life in CD-1 mouse measured at 5 mg/kg, iv for 1 to 24 hrs by HPLC-MS/MS analysis; assay type: ADME, organism-based; conditions: in vivo, time 1-24 hrs, read-out: beta t1/2 (converted)
[9] = Cmax in Sprague-Dawley rat measured at 12.5 mg/kg, po for 1 to 24 hrs by HPLC-MS/MS analysis; assay type: ADME, organism-based; conditions: in vivo, time 1-24 hrs
[10] = AUC (0 to infinity) in Beagle dog measured at 2.5 mg/kg, iv for 1 to 24 hrs by HPLC-MS/MS analysis; assay type: ADME, organism-based, Canis lupus familiaris; conditions: in vivo, time 1-24 hrs
[11] = Cmax in CD-1 mouse measured at 75 mg/kg, po for 1 to 24 hrs by HPLC-MS/MS analysis; assay type: ADME, organism-based; conditions: in vivo, time 1-24 hrs
[12] = Oral bioavailability in Beagle dog measured at 5 mg/kg for 1 to 24 hrs by HPLC-MS/MS analysis; assay type: ADME, organism-based, Canis lupus familiaris; conditions: in vivo, time 1-24 hrs
[13] = Toxicity in athymic nu/nu CD-1 mouse allografted with mouse 3T3 cells expressing human IGF-1R assessed as hyperglycemia at 75 mg/kg, po for 12 days; assay type: organism-based, NIH3T3; conditions: in vivo, 288 h, time 12 day
[14] = Volume of distribution at steady state in Sprague-Dawley rat measured at 5 mg/kg, iv for 1 to 24 hrs by HPLC-MS/MS analysis; assay type: ADME, organism-based; conditions: in vivo, time 1-24 hrs, read-out: Vdss

C[C@]1(O)C[C@@H](c2nc(-c3ccc4ccc(-c5ccccc5)nc4c3)c3c(N)nccn32)C1 [LINSITINIB]
Cmax [1]: 3.42 µM
AUC(0-t) [2]: 317 µg·h/mL
clearance [3]: 39 mL/min/kg
bioavailability [4]: > 100%
inhibition in vivo at 75 mg/kg (NIH3T3): 100%
pIC50 [5]: < 5.00
Vd [6]: 2.05 L/kg
AUC(0-t) [7]: 424 µg·h/mL
half-life [8]: 2.14 h
Cmax [9]: 10 µM
AUC(0-inf) [10]: 1.07 µg·h/mL
Cmax [11]: 16.8 µM
bioavailability [12]: 64%
Activity [13]: Toxic
Vd [14]: 0.79 L/kg
